Experimental data published in ChEMBL document CHEMBL1136195, “Inhibition of Src kinase activity by 4-anilino-5,10-dihydro-pyrimido[4,5-b]quinolines” (Bioorg Med Chem Lett, 2003).

Target: T1, Proto-oncogene tyrosine-protein kinase Src (Homo sapiens, UniProt P12931)
Test: (§1) Inhibition of Src protein tyrosine kinase
Details: not given

T1 sequence (P12931 2-536 limits assumed): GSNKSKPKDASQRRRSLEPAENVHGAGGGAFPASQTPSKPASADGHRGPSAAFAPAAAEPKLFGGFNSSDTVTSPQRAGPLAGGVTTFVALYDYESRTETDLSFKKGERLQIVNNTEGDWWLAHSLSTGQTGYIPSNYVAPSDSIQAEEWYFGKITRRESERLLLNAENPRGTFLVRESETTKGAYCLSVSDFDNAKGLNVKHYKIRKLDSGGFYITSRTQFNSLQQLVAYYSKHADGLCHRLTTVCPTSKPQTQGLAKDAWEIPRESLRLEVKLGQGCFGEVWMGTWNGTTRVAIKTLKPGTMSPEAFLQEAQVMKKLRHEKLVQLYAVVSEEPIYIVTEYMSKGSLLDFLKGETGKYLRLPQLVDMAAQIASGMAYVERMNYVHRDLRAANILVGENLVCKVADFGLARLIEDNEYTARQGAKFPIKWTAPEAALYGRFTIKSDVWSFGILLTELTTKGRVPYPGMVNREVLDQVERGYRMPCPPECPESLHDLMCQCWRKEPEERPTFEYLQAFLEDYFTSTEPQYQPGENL

Q: Which IC50 does the source give for `COCCOc1cc2c(cc1OC)Nc1ncnc(Nc3cc(OC)c(Cl)cc3Cl)c1C2` here?
A: 9.8 nM

Q: `COc1cc(Nc2ncnc3nc4cc(OC)c(OC)cc4cc23)c(Cl)cc1Cl` was tested. Which IC50 did it give?
A: > 10000 nM

Q: For `COCCOc1cc2c(cc1OC)Cc1c(Nc3ccc(Cl)cc3Cl)ncnc1N2`, which IC50 is on record?
A: 16 nM

Q: With `COc1cc2ncc(C#N)c(Nc3ccc(Cl)cc3Cl)c2cc1OC` as the molecule, how does the IC50 read?
A: 30 nM

Q: Which IC50 does the source give for `COc1cc(Nc2ncnc3c2Cc2cc(OC)c(OC)cc2N3)c(Cl)cc1Cl` here?
A: 3.3 nM

Q: How did the IC50 turn out when `COc1cc(Nc2c(C#N)cnc3cc(OC)c(OC)cc23)c(Cl)cc1Cl` was run?
A: 4.3 nM

Q: How did the IC50 turn out when `COCCOc1cc2c(cc1OC)Cc1c(Nc3cc(OC)c(Cl)cc3Cl)ncnc1N2` was run?
A: 2.3 nM

Target: T1, Proto-oncogene tyrosine-protein kinase Src
Test: as §1
Details: concentration not given here

Q: Which inhibition does the source give for `COCCOc1cc2nc3ncnc(Nc4cc(OC)c(Cl)cc4Cl)c3cc2cc1OC` here?
A: 35%
